The test system of one data set is JFH-1 HCVcc-Luc. The note with it: for IC50: HCVcc infection of Huh7.5.1 cells. How it is done:
FIGS. 1A-1C. […] (A) Schematic illustration of apoE protein domains and the amino acid sequences of hEP and mEP peptides. The amino acid sequences shown are hEP-1 (SEQ ID NO: 6) and mEP (SEQ ID NO: 20). […] Huh7.5.1 cells were infected with JFH-1 HCVcc-Luc (MOI˜0.5) in the presence of hEP or mEP for 2 hours. After removal of virus and peptides, cells were further incubated for 48 hours prior to luciferase assay. Data are presented as % inhibition relative to control infections in which cells were treated with DMSO (0%). Results are expressed as mean±standard deviation (s.d.) (n=3). (C). Huh7.5.1 cells were treated with hEP or DMSO at indicated doses for 48 hours. The effect of hEP on cell viability was measured by a CellTiter Glo assay kit.
FIGS. 7A-7E. Mapping the anti-viral activity of hEP. In (A) and (B), HCVcc-luc was first mixed with indicated peptides (20 μg/ml, 2.7 μM) and then incubated with Huh7.5.1 cells for two hours at 37° C. to initiate infection. After additional 48 hours incubation, luciferase activity was measured. Results are presented as fold of inhibition relative to infections containing DMSO (n=5, mean±sd). (C) 20 μg of hEP-2 or hEP-2/ΔCys were resuspended in PBS and kept at room temperature for 30 minutes. Peptides were then mixed with 2×SDS-sample buffer without DTT and boiled for 5 minutes. Alternatively, samples were simply left unboiled or mixed with sample buffer containing DTT (2 mM). Peptide samples were then subjected to electrophoresis on a 16% tricine non-reducing gel (Invitrogen). […] (D) and (E) Mass spectrometric analysis of hEP-2 or hEP-2/ΔCys.
Detailed procedures involving the production and use of HCVpp and HCVcc have been published elsewhere (Liu et al., J Virol 2009; 83:2011-2014; Yang et al., Hepatology 2008; 48:1396-1403; Yang et al., J Biol Chem 2008; 283:8643-8653). Production procedure of HCVcc expressing firefly luciferase that was inserted between NS5A and NS5B (JFH-1 strain) was described elsewhere (Liu et al., Virology 2010; 407:160-170). Unless otherwise indicated, viruses were typically added to cells for two hours before removal. Cells were incubated for additional 48 hours followed by luciferase assay. When purification was needed, HCVcc were subjected to ultracentrifugation (SW41, 28,000×g) for 4 hours through a 20% sucrose cushion. Deidentified human sera, collected from five patients containing high-titer HCV (HCVser), were obtained.

The nature of data set [1]: DMPC binding assay (turbidity OD490nm). The note with it: reduction (percentage) of turbidity (OD490nm) of DMPC solution, plateau 10 minutes after addition of peptide. Here is the method:
FIGS. 3A-3C. Both hEP and mEP mediate plasma cholesterol clearance through hepatic lipoprotein receptors. (A) DMPC binding assay was conducted as described in the examples section. The turbidity of DMPC vesicle solution was monitored by OD490 nm. The curves were representative of two independent experiments. (B) HEK293T cells were loaded with DiI-LDL (5 μg/ml) along with apoE peptide-DMPC particles which competed with DiI-LDL for LDLR binding and LDLR-mediated endocytosis (for 30 min) n=3 for each group. (C) Each peptide (100 μg in 100 μl PBS) was retro-orbitally injected into 6-month-old apoE−/− mice (two mice each group). PBS (100 μl) was injected into two other mice as control. Before (set as 0 min time point) and 5 min, 30 min, 1 h, 2 h, and 4 h after the peptide or PBS injection, 30 μl blood samples were drawn for plasma cholesterol measurement using total Cholesterol Reagent Kit (Raichem, San Diego, Calif.).
1,2-dimyristoyl-sn-glycero-3-phosphatidylcholine (DMPC) (Avanti Polar Lipids Inc., Alabaster, Ala.) was dissolved in chloroform: methanol (3:1, v/v). It was dried thoroughly under a stream of N2. The dried lipid sample was dispersed in pre-warmed buffer (10 mM Tris-HCl, pH7.2; 150 mM NaCl; 0.5 mM EDTA) to final lipid concentration of 10 mg/ml, vortexed for 1 min, and sonicated 10 times at lowest power for 10 seconds at 24° C. The peptide solution, lipid solution and buffer were all maintained at 23.9° C. One milliliter buffer and 250 μg (25 μl lipid solution) were added in a quartz cuvette, and let equilibrate for 10 min, resulting in a turbid DMPC vesicle solution. Peptide solution (250 μg in 100 μl) was then added to turbid solution in the cuvette, the solution was mixed immediately, and the change of turbidity was monitored by OD at 490 nm as a function of time. If the peptide binds to DMPC vesicles, the large DMPC vesicles will be transformed into smaller DMPC-peptide particles, reducing the turbidity of the solution.

For the next data set, the system named is HCVcc-luc. In words: Attachment versus post-attachment inhibition assay. In kind it is cell-based, Hepatitis C virus. The following applies: heparin 200 μg/ml, anti-CD81 5 μg/ml, hEP 20 μg/ml, bafilomycin A1 10 nM. How it is done: FIGS. 5A-5D. hEP inhibits HCV entry at the attachment step. (A) HCVcc-luc was first mixed with either scrambled peptide or hEP-2 (20 μg/ml) for one hour at room temperature. In Group 1, mixed virus was directly added to Huh7.5.1 cells, whereas in Group 2, virus was purified through ultracentrifuge at 28,000×g for 4 hours in order to remove peptide, and then used to infect Huh7.5.1 cells. **p<0.005. (B) The kinetics of hEP- and bafilomycin A1-mediated inhibition were determined by time-of-addition assays, as described in the examples section. Fitted lines represent sigmoidal time-dependent curves (mean of n=3; error bars, s.d.). (C) HCVcc-Luc was added to Huh7.5.1 cells at 4° C. and incubated for 1.5 hrs. Unbound virus was removed by 2 washes with cold media, fresh media was added, and the cells were shifted to 37° C. to allow synchronous infection to proceed. Heparin (200 μg/ml), anti-CD81 monoclonal antibody (5 μg/ml), hEP (20 μg/ml), or bafilomycin A1 (10 nM) were present in the media either continuously, during the 4° C. incubation only (attachment), or during the 37° C. incubation phase only (post-attachment). % Inhibition was calculated as 100-percent infection relative to control infections containing DMSO or an isotype antibody control containing 0.01% sodium azide (for anti-CD81 only) (mean of n=3; error bars, s.d.). (D) The effects of hEP (2.7 μM) or scrambled peptide on HCV binding were determined as described in the examples section. Results were calculated as relative RNA copies with numbers obtained from the scrambled peptide treated wells set to 100 (mean of n=3; error bars, s.d.). **p<0.005.
To investigate the mechanistic action of hEP, three sets of experiments were conducted. First, hEP-2 (SEQ ID NO: 9) or scrambled peptide-treated HCVcc were purified through ultracentrifugation to remove the peptide and then used to infect naïve Huh7.5.1 cells. […] Second, to determine the kinetics of inhibition, a time-of-addition experiment was conducted. HCV remained sensitive to bafilomycin A1, a fusion inhibitor that prevents endosome acidification, until 3 hours after the 37° C. temperature shift (FIG. 5B), which is consistent with previous reports (Koutsoudakis et al., J Virol 2006; 80:5308-5320). […] In order to determine whether hEP-2 (SEQ ID NO: 9) blocks infection at the initial attachment step or a downstream event in the HCV entry process, hEP-2 (SEQ ID NO: 9) was either added together with HCVcc to cells during the 4° C. attachment step only, and then removed prior to shifting the temperature to 37° C., or added only after the temperature shift. As a positive control, hEP-1 was present during the entire course of the experiment. […] Finally, the direct binding of virions to cell surface was measured using a real-time PCR based assay.

Ends that are not written are not given here. Peptide text beside a SMILES is read from it. Some results are limits rather than exact numbers.

In the data set with JFH-1 HCVcc-Luc, `CC[C@H](C)[C@H](NC(=O)[C@@H](N)CS)C(=O)N[C@@H](CCCNC(=N)N)C(=O)N[C@@H](CC(C)C)C(=O)N[C@@H](CCC(N)=O)C(=O)N[C@@H](C)C(=O)N[C@@H](CCC(=O)O)C(=O)N[C@@H](C)C(=O)N[C@@H](Cc1ccccc1)C(=O)N[C@@H](CCC(N)=O)C(=O)N[C@@H](C)C(=O)N[C@@H](CCCNC(=N)N)C(=O)N[C@@H](CC(C)C)C(=O)N[C@@H](CCCCN)C(=O)N[C@@H](CO)C(=O)N[C@@H](Cc1c[nH]c2ccccc12)C(=O)N[C@@H](Cc1ccccc1)C(=O)N[C@@H](CCC(=O)O)C(=O)N1CCC[C@H]1C(=O)N[C@@H](CC(C)C)C(=O)N[C@H](C(=O)O)C(C)C` [hEP-5] came in with an IC50 of over 10 µM. `CC(C)C[C@H](NC(=O)[C@H](CC(=O)O)NC(=O)[C@H](CC(=O)O)NC(=O)[C@H](C)NC(=O)[C@H](CC(=O)O)NC(=O)[C@H](CCCNC(=N)N)NC(=O)[C@H](CC(C)C)NC(=O)[C@H](CC(C)C)NC(=O)[C@H](CCCNC(=N)N)NC(=O)[C@H](CCCCN)NC(=O)[C@H](CCCNC(=N)N)NC(=O)[C@H](CC(C)C)NC(=O)[C@H](CCCCN)NC(=O)[C@H](CCCNC(=N)N)NC(=O)[C@H](CC(C)C)NC(=O)[C@H](Cc1c[nH]cn1)NC(=O)[C@H](CO)NC(=O)[C@H](C)NC(=O)[C@H](CC(C)C)NC(=O)[C@H](CCCNC(=N)N)NC(=O)[C@@H](NC(=O)[C@H](CCCNC(=N)N)NC(=O)[C@H](CC(C)C)NC(=O)[C@H](CCC(=O)O)NC(=O)[C@@H](N)CCC(=O)O)C(C)C)C(=O)O` [hEP-8] registered an IC50 in the data set with JFH-1 HCVcc-Luc of over 10 µM. For the compound `CC(C)C[C@H](NC(=O)[C@H](CC(=O)O)NC(=O)[C@H](CC(=O)O)NC(=O)[C@H](C)NC(=O)[C@H](CC(=O)O)NC(=O)[C@H](CCCNC(=N)N)NC(=O)[C@H](CC(C)C)NC(=O)[C@H](CC(C)C)NC(=O)[C@H](CCCNC(=N)N)NC(=O)[C@H](CCCCN)NC(=O)[C@H](CCCNC(=N)N)NC(=O)[C@H](CC(C)C)NC(=O)[C@H](CCCCN)NC(=O)[C@H](CCCNC(=N)N)NC(=O)[C@H](CC(C)C)NC(=O)[C@H](Cc1c[nH]cn1)NC(=O)[C@H](CO)NC(=O)[C@H](C)NC(=O)[C@H](CC(C)C)NC(=O)[C@H](CCCNC(=N)N)NC(=O)[C@@H](NC(=O)[C@H](CCCNC(=N)N)NC(=O)[C@H](CC(C)C)NC(=O)[C@@H](N)CS)C(C)C)C(=O)O` [hEP-11], the solubility in “physchem” was under 220 µg/mL. For the same compound, the midpoint of inhibition with JFH-1 HCVcc-Luc, the IC50, lay at 4 µM. Turning to `CC(C)C[C@H](NC(=O)[C@H](CC(C)C)NC(=O)[C@H](CCCNC(=N)N)NC(=O)[C@H](CCCCN)NC(=O)[C@H](CCCNC(=N)N)NC(=O)[C@H](CC(C)C)NC(=O)[C@H](CCCCN)NC(=O)[C@H](CCCNC(=N)N)NC(=O)[C@H](CC(C)C)NC(=O)[C@@H](N)CS)C(=O)N[C@@H](CCCNC(=N)N)C(=O)N[C@@H](CS)C(=O)O` [hEP-12, CLRKLRKRLLRC] (H-CLRKLRKRLLRC-OH; N-terminus and C-terminus assumed), the solubility in the data set “physchem” was under 220 µg/mL. The IC50 with JFH-1 HCVcc-Luc was over 10 µM.

As for “CEEIRARLSTHLRKMRKRLMRDADDLQKRLAVY [mEP-2]”, the solubility in the data set “physchem” is over 220 µg/mL. The compound further showed an IC50 with JFH-1 HCVcc-Luc of over 10 µM.

“CEELRVRLASHLRKLRKRLLRDADDLQKRLAVY [hEP-2]” showed a solubility in “physchem” of over 220 µg/mL. This compound gave an IC50 with JFH-1 HCVcc-Luc of 0.5 µM. Regarding CEEQAQQIRLQAEAFQARLKSWFEPLVEDM [hEP-3], the solubility in “physchem” was under 220 µg/mL. The “Inhibition of HCVcc infection/entry (in words)” value in the data set on JFH-1 HCVcc-Luc (Huh7.5.1 cells) is listed as “dramatically reduced ability to inhibit HCVcc entry”. Besides, the DMPC binding entry in data set [1] was “+ (+, reduction 25-50%)”. In turn, “CVDRYEARLRARALKDRQKRLLKELSLLVRHLD [Scrambled, reference compound]” showed a solubility in the data set “physchem” of over 220 µg/mL. Further, in the data set with JFH-1 HCVcc-Luc, the IC50 is over 10 µM. For CVRLASHLRKLRKRLLRDADDL [hEP-4] the same measures were under 220 µg/mL and over 10 µM.

CVRLASHLRKLRKRLLRDADDLQKRLAVY [hEP-10] registered a solubility in “physchem” of over 220 µg/mL. This compound registered an IC50 with JFH-1 HCVcc-Luc of 0.8 µM.

Take “EELRVRLASHLRKLRKRLLRDADDLQKRLAVY [hEP-2/ΔCys]”: in the data set “physchem”, the solubility was over 220 µg/mL. Further, the IC50 with JFH-1 HCVcc-Luc was over 10 µM.

In turn, LRVRLASHLRKLRKRLLRDADDLQKRLAVY [hEP-7] registered an IC50 in the data set on JFH-1 HCVcc-Luc of over 10 µM. Same read-out and setting: the value for “VRLASHLRKLRKRLLRDADDLIRLQAEAFQARLKSWFEPLV [hEP-6]” was over 10 µM; that for VRLASHLRKLRKRLLRDADDLQKRLAVY [hEP-9] was over 10 µM. Take heparin [reference compound]: in the data set on HCVcc-luc, the “Inhibition when present during the 4° C. attachment step only” value was “predominant”.

Values taken from US10125184B2, “Apolipoprotein E polypeptides and their use” (priority 2011, dated 2018).
